Experimental data reported in doi:10.1101/2025.01.07.631748, “Strategic Modulation of Polarity and Viscosity Sensitivity of Bimane Molecular Rotor-Based Fluorophores for Imaging α-Synuclein” (bioRxiv, 2025).

Assays:
α-synuclein (αS) fibrils [1] = molecular target: T1, α-synuclein (αS) fibrils (Homo sapiens, UniProt P37840); assay: fluorescence turn-on binding titration with αS fibrils
T1 construct: gene SNCA

α-synuclein (αS) fibrils [2] = molecular target: T1, α-synuclein (αS) fibrils; assay: fluorescence competition binding with 3c and 4a; fluorescence turn-on

Row | Compound | Kd (α-synuclein (αS) fibrils [1]) | fluorescence competition binding with 3c and 4a; fluorescence turn-on (α-synuclein (αS) fibrils [2])
1 | Cc1c(C)n2c(/C=C/c3ccc(N4CCC4)cc3)c(C)c(=O)n2c1=O [3d, RBF 3d] | 3d and 3e, with cyclic amines, showed reduced affinity | –
2 | Cc1c(C)n2c(/C=C/c3ccc(N4CCOCC4)cc3)c(C)c(=O)n2c1=O [3e, RBF 3e] | 3d and 3e, with cyclic amines, showed reduced affinity | –
3 | Cc1ccc2c(c1)sc(-c1ccc(N(C)C)cc1)[n+]2C [ThT, Thioflavin-T] | – | both 3c and 4a competed with the promiscuous binder ThT, but that some ThT emission remained at saturating concentrations
